Assay results taken from patent publication US20080221161A1, “HETEROCYCLIC MODULATORS OF TGR5 FOR TREATMENT OF DISEASE” (KALYPSYS, INC., priority 2007, published 2008).

Target: T1, human TGR5 (Homo sapiens, UniProt Q8TDU6)
T1 construct: expressed in transfected cells; host or cells: HEK-293 cells, stably transfected (pcDNA 3.1, Fugene6, geneticin selection)
T1 sequence (Q8TDU6 1-330): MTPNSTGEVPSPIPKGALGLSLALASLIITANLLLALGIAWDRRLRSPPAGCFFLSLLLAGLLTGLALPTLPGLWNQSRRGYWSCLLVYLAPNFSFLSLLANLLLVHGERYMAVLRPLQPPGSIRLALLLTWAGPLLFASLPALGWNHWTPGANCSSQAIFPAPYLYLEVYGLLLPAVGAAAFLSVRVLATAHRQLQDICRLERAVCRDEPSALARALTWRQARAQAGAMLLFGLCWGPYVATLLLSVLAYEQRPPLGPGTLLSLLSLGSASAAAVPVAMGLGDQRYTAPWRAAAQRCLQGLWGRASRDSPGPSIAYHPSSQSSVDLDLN
Assay: cAMP production assay in HEK293-TGR5 cells
Format: cell-based
Conditions: HEK293 cells stably expressing human TGR5; 30 minutes stimulation; LANCE cAMP TR-FRET; read-out: cAMP Production in 293-TGR5 Cells EC50
Procedure: HEK293 cells stably expressing TGR5 (HEK293-TGR5) were established by stably transfecting HEK-293 cells with an expression vector (pcDNA 3.1, Invetrogen) inserted with human TGR5 cDNA using Fugene6 (Roche, Indianapolis, Ind.) according to conventional methods. Cells were grown in DMEM (invitrogen, Carlsbad, Calif.) supplemented with 10% FBS, 1% penicillin/streptomycin under geneticin selection. The presence of TGR5 transcripts in these cells was confirmed using branched DNA (bDNA, Genospectra, Inc., Fremont Calif.) following the manufacturer's protocol and using specific probes for human TGR5. cAMP production assay was performed in high throughput 1536 well format using LANCE cAMP detection kit (Perkin Elmer Inc., Boston, Mass.) according to the manufacturer's protocol. Briefly, HEK293-TGR5 cells were harvested using non-enzymatic cell dissociation buffer (Invitrogen, Carlsbad, Calif.) and suspended in DMEM supplemented with 0.1% FBS at a density of 800,000 cells/ml. Alexa antibody was added to the cell suspension, and 4 ul of the mixture was dispensed in white opaque tissue culture treated Greiner 1536 well plates (USA Scientific, Inc., Ocala, Fla.). After an overnight incubation at 37C in an atmosphere of 10% CO2 and 95% humidity, 1 ul of 5 mM IBMX (Sigma, St. Louis, Mo.) solution in DMEM was dispensed for a final concentration of 1 mM. Cells were then stimulated with test compounds for 30 minutes, after which time 5 ul of detection reagent was added and incubated for 1-7 hrs at room temperature. TR-FRET signal was detected using the Viewlux (Perkin Elmer Inc., Boston Mass.). EC50 values were determined using Graph Pad Prizm analysis (GraphPad Software, Inc).

| Structure (SMILES) | EC50 [µM] |
| --- | --- |
| COc1ccc2cc(CNC3CCc4ccccc43)c(-c3ccncc3)nc2c1 (racemic) [Example 86, (±)-N-((7-Methoxy-2-(pyridin-4-yl)quinolin-3-yl)methyl)-2,3-dihydro-1H-inden-1-amine] | < 10 |
| COc1ccc2cc(C(C)NCCc3ccc(Br)cc3)c(-c3ccsc3)nc2c1 (racemic) [Example 143, (±)-N-(4-Bromophenethyl)-1-(7-methoxy-2-(thiophen-3-yl)quinolin-3-yl)ethanamine] | > 10 |
| CC(NCCc1ccc(Br)cc1)c1cc2ccc(O)cc2nc1-c1ccsc1 (racemic) [Example 144, (±)-3-(1-(4-Bromophenethylamino)ethyl)-2-(thiophen-3-yl)quinolin-7-ol] | > 10 |
| COc1ccc2cc(CNCc3ccc(C(F)(F)F)cc3)c(-c3ccsc3)nc2c1 [Example 1, 1-(7-methoxy-2-(thiophen-3-yl)quinolin-3-yl)-N-(4-(trifluoromethyl)benzyl)methanamine] | > 10 |
| COc1ccc2cc(CNCc3cccc(C(F)(F)F)c3)c(-c3ccsc3)nc2c1 [Example 3, 1-(7-Methoxy-2-(thiophen-3-yl)quinolin-3-yl)-N-(3-(trifluoromethyl)benzyl)methanamine] | < 10 |
| Cc1cccc2cc(CNCCc3ccc(Cl)cc3)c(-c3ccsc3)nc12 [Example 4, 2-(4-Chlorophenyl)-N-((8-methyl-2-(thiophen-3-yl)quinolin-3-yl)methyl)ethanamine] | > 10 |
| Cc1cccc2cc(CNCc3ccc(C(F)(F)F)cc3)c(-c3ccsc3)nc12 [Example 5, 1-(8-Methyl-2-(thiophen-3-yl)quinolin-3-yl)-N-(4-(trifluoromethyl)benzyl)methanamine] | < 10 |
| COc1ccc2cc(CNCc3ccc(C(F)(F)F)cc3)c(-c3cccnc3)nc2c1 [Example 6, 1-(7-Methoxy-2-(pyridin-3-yl)quinolin-3-yl)-N-(4-(trifluoromethyl)benzyl)methanamine] | < 10 |
| COc1ccc2cc(CNCCc3ccc(Cl)cc3)c(-c3cccnc3)nc2c1 [Example 7, 2-(4-Chlorophenyl)-N-((7-methoxy-2-(pyridin-3-yl)quinolin-3-yl)methyl)ethanamine] | < 10 |
| COc1ccc2cc(CNCCc3ccc(F)cc3)c(-c3cccnc3)nc2c1 [Example 8, 2-(4-Fluorophenyl)-N-((7-methoxy-2-(pyridin-3-yl)quinolin-3-yl)methyl)ethanamine] | < 10 |
| COc1ccc2cc(CNCc3ccc(OC(F)(F)F)cc3)c(-c3cccnc3)nc2c1 [Example 10, 1-(7-Methoxy-2-(pyridin-3-yl)quinolin-3-yl)-N-(4-(trifluoromethoxy)benzyl)methanamine] | > 10 |
| COc1ccc2cc(CNCc3ccc(N(C)C)cc3)c(-c3cccnc3)nc2c1 [Example 11, 4-(((7-Methoxy-2-(pyridin-3-yl)quinolin-3-yl)methylamino)methyl)-N,N-dimethylaniline] | < 10 |
| FC(F)(F)Oc1ccc2cc(CNCc3ccc(C(F)(F)F)cc3)c(-c3ccsc3)nc2c1 [Example 12, 1-(2-(Thiophen-3-yl)-7-(trifluoromethoxy)quinolin-3-yl)-N-(4-(trifluoromethyl)benzyl)methanamine] | < 10 |
| FC(F)(F)Oc1ccc2cc(CNCCc3ccc(Cl)cc3)c(-c3ccsc3)nc2c1 [Example 13, 2-(4-Chlorophenyl)-N-((2-(thiophen-3-yl)-7-(trifluoromethoxy)quinolin-3-yl)methyl)ethanamine] | > 10 |
| FC(F)(F)Oc1ccc2cc(CNCCc3ccc(Cl)cc3)c(-c3cccnc3)nc2c1 [Example 14, 2-(4-Chlorophenyl)-N-((2-(pyridin-3-yl)-7-(trifluoromethoxy)quinolin-3-yl)methyl)ethanamine] | > 10 |
| FC(F)(F)Oc1ccc2cc(CNCc3ccc(C(F)(F)F)cc3)c(-c3cccnc3)nc2c1 [Example 15, 1-(2-(Pyridin-3-yl)-7-(trifluoromethoxy)quinolin-3-yl)-N-(4-(trifluoromethyl)benzyl)-methanamine] | < 10 |
| FC(F)(F)Oc1ccc2cc(CNCCc3ccc(Br)cc3)c(-c3cccnc3)nc2c1 [Example 16, 2-(4-Bromophenyl)-N-((2-(pyridin-3-yl)-7-(trifluoromethoxy)quinolin-3-yl)methyl)ethanamine] | > 10 |

| Structure (SMILES) | EC50 [µM] |
| --- | --- |
| COc1ccc2cc(CNC(=O)c3ccc(C(F)(F)F)cc3)c(-c3ccsc3)nc2c1 [Example 17, N-((7-methoxy-2-(thiophen-3-yl)quinolin-3-yl)methyl)-4-(trifluoromethyl)benzamide] | > 10 |
| COc1ccc2cc(C(=O)NCc3ccc(C(F)(F)F)cc3)c(-c3ccsc3)nc2c1 [Example 18, 7-methoxy-2-(thiophen-3-yl)-N-(4-(trifluoromethyl)benzyl)quinoline-3-carboxamide] | > 10 |
| COc1ccc2cc(C(=O)NCCc3ccc(Cl)cc3)c(-c3ccsc3)nc2c1 [Example 19, N-(4-Chlorophenethyl)-7-methoxy-2-(thiophen-3-yl)quinoline-3-carboxamide] | < 10 |
| COc1ccc2cc(CNCc3ccc(C(F)(F)F)cc3)c(-c3cnn(C)c3)nc2c1 [Example 20, 1-(7-Methoxy-2-(1-methyl-1H-pyrazol-4-yl)quinolin-3-yl)-N-(4-(trifluoromethyl)benzyl)methanamine] | < 10 |
| COc1ccc2cc(CNCCc3ccc(Cl)cc3)c(-c3cnn(C)c3)nc2c1 [Example 21, 2-(4-Chlorophenyl)-N-((7-methoxy-2-(1-methyl-1H-pyrazol-4-yl)quinolin-3-yl)methyl)ethanamine] | < 10 |
| COc1ccc2cc(CNCCc3ccc(Cl)cc3)c(-c3ccncc3)nc2c1 [Example 22, 2-(4-Chlorophenyl)-N-((7-methoxy-2-(pyridin-4-yl)quinolin-3-yl)methyl)ethanamine] | < 10 |
| COc1ccc2cc(CNCc3ccc(C(F)(F)F)cc3)c(-c3ccncc3)nc2c1 [Example 23, 1-(7-Methoxy-2-(pyridin-4-yl)quinolin-3-yl)-N-(4-(trifluoromethyl)benzyl)methanamine] | < 10 |
| COc1ccc2cc(CNCc3ccc(C(F)(F)F)cc3)c(-c3ccccc3F)nc2c1 [Example 24, 1-(2-(2-Fluorophenyl)-7-methoxyquinolin-3-yl)-N-(4-(trifluoromethyl)benzyl)methanamine] | > 10 |
| COc1ccc2cc(CNCCc3ccc(Cl)cc3)c(-c3ccccc3F)nc2c1 [Example 25, 2-(4-Chlorophenyl)-N-((2-(2-fluorophenyl)-7-methoxyquinolin-3-yl)methyl)ethanamine] | < 10 |
| COc1ccc2nc(-c3ccsc3)c(CNCc3ccc(C(F)(F)F)cc3)cc2c1 [Example 26, 1-(6-Methoxy-2-(thiophen-3-yl)quinolin-3-yl)-N-(4-(trifluoromethyl)benzyl)methanamine] | > 10 |
| COc1ccc2nc(-c3ccsc3)c(CNCCc3ccc(Cl)cc3)cc2c1 [Example 27, 2-(4-Chlorophenyl)-N-((6-methoxy-2-(thiophen-3-yl)quinolin-3-yl)methyl)ethanamine] | > 10 |
| FC(F)(F)c1ccc(CNCc2cc3ccccc3nc2-c2ccsc2)cc1 [Example 28, 1-(2-(Thiophen-3-yl)quinolin-3-yl)-N-(4-(trifluoromethyl)benzyl)-methanamine] | < 10 |
| Clc1ccc(CCNCc2cc3ccccc3nc2-c2ccsc2)cc1 [Example 29, 2-(4-Chlorophenyl)-N-((2-(thiophen-3-yl)quinolin-3-yl)methyl)-ethanamine] | > 10 |
| COc1ccc2cc(CNCc3ccc(C(F)(F)F)cc3)c(-c3nccs3)nc2c1 [Example 30, 1-(7-methoxy-2-(thiazol-2-yl)quinolin-3-yl)-N-(4-(trifluoromethyl)benzyl)methanamine] | > 10 |
| COc1ccc2cc(CNCCc3ccc(Cl)cc3)c(-c3nccs3)nc2c1 [Example 31, 2-(4-Chlorophenyl)-N-((7-methoxy-2-(thiazol-2-yl)quinolin-3-yl)methyl)ethanamine] | > 10 |
| COc1ccc2cc(CN(CCc3ccc(Cl)cc3)C(C)=O)c(-c3ccsc3)nc2c1 [Example 32, N-(4-Chlorophenethyl)-N-((7-methoxy-2-(thiophen-3-yl)quinolin-3-yl)methyl)acetamide] | > 10 |
| COc1ccc2cc(CN(CCc3ccc(Cl)cc3)S(C)(=O)=O)c(-c3ccsc3)nc2c1 [Example 33, N-(4-Chlorophenethyl)-N-((7-methoxy-2-(thiophen-3-yl)quinolin-3-yl)methyl)methanesulfonamide] | > 10 |
